Article PMC6196238, “Novobiocin, a Newly Found TRPV1 Inhibitor, Attenuates the Expression of TRPV1 in Rat Intestine and Intestinal Epithelial Cell Line IEC-6” (Frontiers in Pharmacology, 2018)

Tests used:
[1] = test system: IEC-6/TRPV1- cells; experiment: LDH release assay (cell membrane integrity)
Method: (§1) The transfected cells were plated in 12-well plates. […] The cells were centrifuged at 1000 g for 5 min. Next, 50 μL of supernatants were aspirated and the rest of supernatants were discarded. The cells were washed twice with deionized water and then lysed by ultrasonic wave cracker. And then cell lysate and supernatants were analyzed by using LDH Release Assay Kit, according to the manufacturer’s instructions.

[2] = test system: IEC-6/TRPV1+ cells; experiment: LDH release assay (cell membrane integrity); conditions: for LDH release: IEC-6/TRPV1+; for LDH release compared with the control: NOVO 2.5, 5, 10 μM, CAP 25 μM, RR 10 μM, SB-705498 0.1 μM, 12 and 24 h
Method: as §1

[3] = test system: TRPV1; experiment: TRPV1 expression in IEC-6/TRPV1+ cells (qRT-PCR, western blot, immunofluorescence); assay type: cell-based, rat; conditions: for fluorescence intensity of TRPV1: pre-treatment 24 h, NOVO 10 μM, SB-705498 0.1 μM, Figure 2G
Method: The IEC-6/TRPV1^+ cells were cultured on coverslips in 24-well plates overnight. Briefly, cells were stimulated with NOVO (10 μM), SB-705498 (0.1 μM) for 24 h. At the end of incubation, cells were fixed with 4% paraformaldehyde in 0.1 M PBS for 20 min. The cells were then treated by 0.25% (v/v) TritonX-100 for 5 min, and washed again. Followed by blocking in 5% (v/v) horse serum for 60 min, cells were then incubated with primary antibodies for the anti-TRPV1 receptor antibody (1:1000, NB100-1617, Novus) overnight in a 4°C refrigerator. Alexa Flour® 488-conjugated goat anti-rabbit IgG (Zhongshan Goldenbridge Biotechnology) at 1:100 dilution was used as the secondary antibody that incubated cells for 60 min. Thereafter, the coverslips were mounted face down onto slides with mounting medium containing DAPI and stored at 4°C before microscopy. Fluorescence images were captured using a fluorescence microscope (Olympus, Japan).
qRT-PCR was performed to evaluate TRPV1 mRNA expression after NOVO treatment. The total RNA of the cells or tissues was isolated with an RNA isolation plus kit (Takara Shuzo, Kyoto, Japan), according to the manufacturer’s protocol. The quality of RNA was confirmed by agarose gel electrophoresis and an optical density measurement of A260/A280. The cDNAs were prepared using SYBR® Premix Ex Taq^TMII (Takara Shuzo, Kyoto, Japan) and the following primers: 5′-[…]-3′ and 5′-[…]-3′ for TRPV1, and 5′-[…]-3′, 5′-[…]-3′ for GAPDH were carried out by using the LightCycler480 System. The relative expression was calculated by the 2^-ΔΔC(t) method ([Livak and Schmittgen, 2001]).
After treatment, the cells or tissues were collected and washed with PBS. Membrane protein extracts were obtained with Membrane Protein Extraction Kit (Thermo Fisher Scientific Inc, United States), according to the manufacturer’s protocol. Protein concentrations were quantified by using the BCA Protein Assay kit (Beyotime, Shanghai, China). Equal amounts of protein were resolved by SDS-PAGE on a 10% polyacrylamide gel and transferred onto a polyvinylidene fluoride membrane. […]

[4] = test system: IEC-6/TRPV1+ cells; experiment: CAP accumulation assay; assay type: cell-based, rat; conditions: for accumulation of CAP after inhibitor added at 60 min: CAP alone 60 min, then SB-705498 or NOVO (5 and 10 μM), at 75 min, Figure 3E
Method: The transfected cells were grown to 80% confluence in 12-well plates. […] SB-705498, RR or NOVO was then added to the medium for another 15, 30, and 60 min. […] After incubation, the medium was removed, and cell layers were washed three times with ice-cold PBS and then extracted with Membrane Protein Extraction Kit (Thermo Fisher Scientific Inc, Rockford, IL, United States), according to the manufacturer’s protocol. The cytosolic protein extracts were stored at -80°C until LC-MS/MS analysis.
The plasma samples and protein sample with 100 μL were extracted with 400 μL of methanol involving IS (verapamil 50 ng⋅mL^-1) by vortex-mix for 1 min, ultrasonic extraction for 1 h, and then centrifugation for 30 min at 15000 g. The supernatant was transferred into a borosilicate glass and 2 μL was subjected to LC-MS/MS analysis.
The LC-MS/MS system consisted of Agilent 6460 Triple Quadrupole LC/MS systems via an ESI interface. The samples were separated on an Agilent ZORBAX SB-C18 column (3.5 μm, 2.1 mm × 150 mm) and the column temperature was maintained at 30°C. The mobile phase consisted of acetonitrile and water contains 0.1% formic acid (70:30, v/v). The flow rate was 0.2 mL⋅min^-1. The ion source was an electrospray ionization interface in the positive mode. […] Other parameters were as follows: spray voltage, 4.0 kV; capillary temperature, 350°C; gas flow, 10 L⋅min^-1.

[5] = test system: IEC-6/TRPV1- cells; experiment: CAP accumulation assay; assay type: cell-based, rat; conditions: 2.5-10 μM NOVO, 10 μM RR, 0.1 μM SB-705498, Figure 3D
Method: The transfected cells were grown to 80% confluence in 12-well plates. The experiment was divided into three parts: […] SB-705498, RR or NOVO was then added to the medium for another 15, 30, and 60 min. […] After incubation, the medium was removed, and cell layers were washed three times with ice-cold PBS and then extracted with Membrane Protein Extraction Kit (Thermo Fisher Scientific Inc, Rockford, IL, United States), according to the manufacturer’s protocol. The cytosolic protein extracts were stored at -80°C until LC-MS/MS analysis. The plasma samples and protein sample with 100 μL were extracted with 400 μL of methanol involving IS (verapamil 50 ng⋅mL^-1) by vortex-mix for 1 min, ultrasonic extraction for 1 h, and then centrifugation for 30 min at 15000 g. The supernatant was transferred into a borosilicate glass and 2 μL was subjected to LC-MS/MS analysis. The LC-MS/MS system consisted of Agilent 6460 Triple Quadrupole LC/MS systems via an ESI interface. The samples were separated on an Agilent ZORBAX SB-C18 column (3.5 μm, 2.1 mm × 150 mm) and the column temperature was maintained at 30°C. The mobile phase consisted of acetonitrile and water contains 0.1% formic acid (70:30, v/v). The flow rate was 0.2 mL⋅min^-1. The ion source was an electrospray ionization interface in the positive mode. […] Other parameters were as follows: spray voltage, 4.0 kV; capillary temperature, 350°C; gas flow, 10 L⋅min^-1.

CO[C@@H]1[C@@H](OC(N)=O)[C@@H](O)[C@H](Oc2ccc3c(O)c(NC(=O)c4ccc(O)c(CC=C(C)C)c4)c(=O)oc3c2C)OC1(C)C [NOVO, novobiocin]
LDH release ([1]; 1 μM, 12 h): 0.638 ± 0.131 gprot⋅mL ^-1
LDH release ([1]; 1 μM, 24 h): 0.433 ± 0.127 gprot⋅mL ^-1
LDH release ([1]; 5 μM, 12 h): 0.651 ± 0.120 gprot⋅mL ^-1
LDH release ([1]; 5 μM, 24 h): 0.554 ± 0.103 gprot⋅mL ^-1
LDH release ([1]; 10 μM, 12 h): 0.535 ± 0.119 gprot⋅mL ^-1
LDH release ([1]; 10 μM, 24 h): 0.502 ± 0.106 gprot⋅mL ^-1
LDH release ([2]; 1 μM, 12 h): 0.415 ± 0.169 gprot⋅mL ^-1
LDH release ([2]; 1 μM, 24 h): 0.353 ± 0.026 gprot⋅mL ^-1
LDH release ([2]; 5 μM, 12 h): 0.356 ± 0.090 gprot⋅mL ^-1
LDH release ([2]; 5 μM, 24 h): 0.300 ± 0.052 gprot⋅mL ^-1
LDH release ([2]; 10 μM, 12 h): 0.337 ± 0.005 gprot⋅mL ^-1
LDH release ([2]; 10 μM, 24 h): 0.299 ± 0.072 gprot⋅mL ^-1
LDH release compared with the control [2]: not any significant difference
expression of TRPV1 mRNA and protein ([3]; 2.5-10 μM NOVO, over 24 h, Figures 2A,B,F): dramatically attenuate
fluorescence intensity of TRPV1 [3]: reduced
accumulation of CAP after inhibitor added at 60 min [4]: decreased immediately
accumulation of CAP, co-incubation ([4]; CAP in combination with 2.5-10 μM NOVO, vs control, Figure 3C): strong inhibition
accumulation of CAP in cells after 24 h pre-treatment ([4]; NOVO 2.5-10 μM 24 h prior to 25 μM CAP for 60 min, Figure 3B): positive correlation with a decrease in the accumulation of CAP
accumulation of CAP, co-incubation [5]: did not change

O=C(Nc1ccccc1Br)N[C@@H]1CCN(c2ccc(C(F)(F)F)cn2)C1 [SB-705498]
LDH release ([1]; 0.1 μM, 12 h): 0.509 ± 0.155 gprot⋅mL ^-1
LDH release ([1]; 0.1 μM, 24 h): 0.537 ± 0.019 gprot⋅mL ^-1
LDH release ([2]; 0.1 μM, 12 h): 0.469 ± 0.124 gprot⋅mL ^-1
LDH release ([2]; 0.1 μM, 24 h): 0.423 ± 0.149 gprot⋅mL ^-1
LDH release compared with the control [2]: not any significant difference
fluorescence intensity of TRPV1 [3]: reduced
accumulation of CAP after inhibitor added at 60 min [4]: decreased immediately
accumulation of CAP, co-incubation [5]: did not change
